Tested on: reconstructed human epidermis
Assay: incorporation of 14C-acetate into total lipids in reconstructed human epidermis (Skinethic)
Format: cell-based
Conditions: for percentage of stimulation (incorporation of 14C-acetate, total lipid synthesis): untreated cells = 100
Experimental: Study of the effect of β-naphthoxyacetic acid on the synthesis of the total lipids of the skin.
The study is carried out by measuring the incorporation of acetate labelled with carbon-14 in models of reconstructed human epidermis sold by the company Skinethic, the total lipids composition of which is close to that of normal human epidermis.
The reconstructed human epidermis is cultured according to the supplier's recommendations.
β-Naphthoxyacetic acid, at concentrations of 10^−5, 10^−6, and 10^−7 M, is placed in contact for 72 hours with reconstructed human epidermides, after culturing the latter for 14 days under the conditions recommended by the supplier. The labelling with ^14C-acetate (sodium [2-^14C]-acetate sold by Amersham, 59 mci/mmol) is carried out 24 hours after placing the test product in contact with the culture, i.e. during the final 48 hours of culturing, at a rate of 0.5 μCi of ^14C-acetate per culture.
At the end of culturing, after washing the epidermides with phosphate buffer (PBS), the epidermides are dissociated and the cells are lysed with 0.5 M perchloric acid from ice. The lysates then undergo an extraction with a methanol/chloroform mixture (2:1), a centrifugation and a re-extraction of the pellets obtained, under the same conditions as above. The lipids are separated by addition of PBS and chloroform (Blight-Byer technique). The organic phase containing the lipids is taken and the radioactivity incorporated into this phase is determined by liquid scintillation. The organic phase is then dried under a flow of nitrogen. A thin layer chromatography on plates on plates (Merck K60) using, as eluent, a chloroform/methanol/water mixture (50:18:2.6) to separate the phospholipids, or a hexane/ether/acetic acid mixture (15:5.6:0.19) to separate the neutral lipids.
The plates are then autoradiographed for 24 hours and the chromatograms are analysed by densitometry using the One-D-Scan software from the company Scanalytics.
The results are evaluated relative to a control consisting of cells which have not been treated with β-naphthoxyacetic acid.
A positive control (10^−4 M trifluoperazine), which is known to stimulate lipid synthesis, and an negative control (10^−6 M retinoic acid) are introduced into the test by way of reference.

CC1=C(/C=C/C(C)=C/C=C/C(C)=C/C(=O)O)C(C)(C)CCC1 [Retinoic acid, retinoic acid, reference compound]
percentage of stimulation (incorporation of 14C-acetate, total lipid synthesis) (10^−6 M, 72 hours contact): 82%

O=C(O)COc1ccc2ccccc2c1 [β-Naphthoxyacetic acid]
percentage of stimulation (incorporation of 14C-acetate, total lipid synthesis) (10^−5 M, 72 hours contact): 110%
effect on incorporation of acetate / lipid synthesis (in words) (10^−5 to 10^−7 M, reconstructed human epidermis): significantly stimulates the incorporation of acetate
percentage of stimulation (incorporation of 14C-acetate, total lipid synthesis) (10^−6 M, 72 hours contact): 113%
percentage of stimulation (incorporation of 14C-acetate, total lipid synthesis) (10^−7 M, 72 hours contact): 116%

CN1CCN(CCCN2c3ccccc3Sc3ccc(C(F)(F)F)cc32)CC1 [Trifluoroperazine, trifluoperazine, reference compound]
percentage of stimulation (incorporation of 14C-acetate, total lipid synthesis) (10^−4 M, positive control): 122%

Source: patent publication US6521239B1, “Cosmetic composition containing at least one auxin and its use” (Societe L'Oreal S.A., priority 1997, dated 2003)
